Data on 21 molecules can be found in ChEMBL document CHEMBL1909046, “DrugMatrix in vitro pharmacology data”.

Data set [1] deals with T1, Polyunsaturated fatty acid lipoxygenase ALOX15 (Oryctolagus cuniculus, UniProt P12530).
T1 sequence (P12530 whole entry): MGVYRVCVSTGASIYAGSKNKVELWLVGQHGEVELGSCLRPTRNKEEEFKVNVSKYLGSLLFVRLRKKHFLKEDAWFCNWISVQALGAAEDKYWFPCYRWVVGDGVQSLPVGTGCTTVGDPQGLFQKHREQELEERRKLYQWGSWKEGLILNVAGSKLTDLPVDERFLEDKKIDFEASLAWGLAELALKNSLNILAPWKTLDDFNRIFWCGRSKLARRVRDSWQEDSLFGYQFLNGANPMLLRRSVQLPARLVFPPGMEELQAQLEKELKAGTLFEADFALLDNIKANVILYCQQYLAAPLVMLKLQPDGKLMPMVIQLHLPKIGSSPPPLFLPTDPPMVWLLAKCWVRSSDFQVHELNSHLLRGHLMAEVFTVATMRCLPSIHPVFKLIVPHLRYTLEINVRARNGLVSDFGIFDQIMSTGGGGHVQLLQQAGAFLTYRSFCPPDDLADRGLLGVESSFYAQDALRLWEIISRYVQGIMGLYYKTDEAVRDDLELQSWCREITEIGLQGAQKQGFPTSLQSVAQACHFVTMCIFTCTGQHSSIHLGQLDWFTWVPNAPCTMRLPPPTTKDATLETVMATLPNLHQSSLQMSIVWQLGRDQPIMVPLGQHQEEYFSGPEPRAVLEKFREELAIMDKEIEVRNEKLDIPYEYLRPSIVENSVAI
Nature of the data set: biochemical. In kind it is tissue-based, Reticulocytes.

Data set [2] deals with T2, Alpha-2C adrenergic receptor (Homo sapiens, UniProt P18825).
T2 sequence (P18825 whole entry): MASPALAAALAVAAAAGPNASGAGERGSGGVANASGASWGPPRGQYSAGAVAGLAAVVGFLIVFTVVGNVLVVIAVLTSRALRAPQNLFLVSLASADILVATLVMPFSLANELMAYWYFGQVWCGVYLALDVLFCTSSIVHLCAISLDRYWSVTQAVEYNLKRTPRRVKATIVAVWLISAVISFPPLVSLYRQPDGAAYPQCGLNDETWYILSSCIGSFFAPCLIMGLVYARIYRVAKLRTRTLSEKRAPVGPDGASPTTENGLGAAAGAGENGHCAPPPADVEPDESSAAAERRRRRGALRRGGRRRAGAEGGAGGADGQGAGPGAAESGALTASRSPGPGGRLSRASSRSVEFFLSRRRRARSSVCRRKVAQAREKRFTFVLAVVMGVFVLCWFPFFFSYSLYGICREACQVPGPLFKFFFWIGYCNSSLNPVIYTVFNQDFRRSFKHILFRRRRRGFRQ
Nature of the data set: DRUGMATRIX: Adrenergic Alpha-2C radioligand binding (ligand: [3H] MK-912). In kind it is cell membranes, Sf9, Membrane.

The target in data set [3] is Beta-2 adrenergic receptor (Homo sapiens, UniProt P07550). Put plainly: DRUGMATRIX: Adrenergic beta2 radioligand binding (ligand: [3H] CGP-12177). The format is cell membranes, CHO, Membrane. As to conditions: cho; Not Active = under 50% inhibition at 10 µM.
Chain of Beta-2 adrenergic receptor (P07550 whole entry): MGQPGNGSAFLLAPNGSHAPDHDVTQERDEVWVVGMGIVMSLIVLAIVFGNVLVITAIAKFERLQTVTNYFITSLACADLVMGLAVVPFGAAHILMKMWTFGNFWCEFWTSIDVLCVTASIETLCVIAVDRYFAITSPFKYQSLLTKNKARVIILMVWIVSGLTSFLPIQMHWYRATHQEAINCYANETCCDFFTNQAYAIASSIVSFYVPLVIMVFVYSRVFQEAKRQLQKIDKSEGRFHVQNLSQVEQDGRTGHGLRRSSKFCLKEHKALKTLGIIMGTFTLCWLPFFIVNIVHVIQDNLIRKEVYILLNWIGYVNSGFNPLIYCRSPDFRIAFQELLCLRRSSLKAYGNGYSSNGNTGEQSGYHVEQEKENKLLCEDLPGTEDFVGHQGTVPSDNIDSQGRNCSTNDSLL
In another data set the target is D(1A) dopamine receptor (Homo sapiens, UniProt P21728). Put plainly: DRUGMATRIX: Dopamine D1 radioligand binding (ligand: [3H] SCH-23390). In kind it is cell membranes, CHO, Membrane. As to conditions: Not Active = under 50% inhibition at 10 µM.
Chain of D(1A) dopamine receptor (P21728 whole entry): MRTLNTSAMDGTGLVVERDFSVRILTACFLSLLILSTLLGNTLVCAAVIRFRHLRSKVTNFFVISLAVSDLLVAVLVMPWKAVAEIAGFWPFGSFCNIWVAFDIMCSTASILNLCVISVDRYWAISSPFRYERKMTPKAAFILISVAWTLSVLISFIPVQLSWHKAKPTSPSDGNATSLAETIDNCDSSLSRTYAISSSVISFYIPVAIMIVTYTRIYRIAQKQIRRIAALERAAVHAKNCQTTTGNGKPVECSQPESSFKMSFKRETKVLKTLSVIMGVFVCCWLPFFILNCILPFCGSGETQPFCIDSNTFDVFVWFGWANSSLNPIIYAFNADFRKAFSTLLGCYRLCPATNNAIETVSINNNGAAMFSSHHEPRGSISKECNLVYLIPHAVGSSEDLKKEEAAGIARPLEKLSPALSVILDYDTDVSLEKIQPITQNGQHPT
Data set [4] deals with Protein phosphatase 3 catalytic subunit alpha (Homo sapiens, UniProt Q08209). Also on record: species or system Escherichia coli.
The target in a further data set is Cytochrome P450 2E1 (Homo sapiens, UniProt P05181). As to conditions: bti-tn-5b1-4. Further: in other assays of this panel Not Active means under 50% inhibition at 10 µM.
Chain of Cytochrome P450 2E1 (P05181 whole entry): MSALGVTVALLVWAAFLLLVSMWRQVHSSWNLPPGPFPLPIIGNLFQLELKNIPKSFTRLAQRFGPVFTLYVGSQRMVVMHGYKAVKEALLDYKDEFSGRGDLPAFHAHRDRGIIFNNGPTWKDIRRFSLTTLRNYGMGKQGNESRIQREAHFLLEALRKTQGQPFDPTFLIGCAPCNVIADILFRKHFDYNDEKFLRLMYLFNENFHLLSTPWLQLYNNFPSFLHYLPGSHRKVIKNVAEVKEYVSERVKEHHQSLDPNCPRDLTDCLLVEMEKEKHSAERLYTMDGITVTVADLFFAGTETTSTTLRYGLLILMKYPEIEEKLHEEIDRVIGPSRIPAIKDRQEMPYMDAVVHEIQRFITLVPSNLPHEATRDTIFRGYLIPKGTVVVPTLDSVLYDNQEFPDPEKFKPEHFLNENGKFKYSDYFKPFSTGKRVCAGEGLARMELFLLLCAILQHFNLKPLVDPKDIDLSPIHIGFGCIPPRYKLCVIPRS

Regarding `CCOc1nc2cccc(C(=O)O)c2n1Cc1ccc(-c2ccccc2-c2nnn[nH]2)cc1`, the IC50 entry (in data set [1] (reticulocytes); in data set [2] (sf9); in data set [3]; on D(1A) dopamine receptor (cho); in data set [4]; at Cytochrome P450 2E1) was “Not Active” in each case. Further, the Ki entry at Cytochrome P450 2E1 is listed as “Not Active”.

For `O=C(O)CCCc1cccs1`, the 50% inhibitory concentration (IC50) result (in data set [1] (reticulocytes); in data set [2] (sf9); in data set [3]; on D(1A) dopamine receptor (cho); in data set [4]; on Cytochrome P450 2E1) was “Not Active” each time. In addition, the Ki result on Cytochrome P450 2E1 was “Not Active”.

Turning to `COc1ccccc1N`, the IC50 in data set [1] (read-out: IC50) was 2.05 µM; in data set [2] (sf9) it was “Not Active”; in data set [3] it was “Not Active”; on D(1A) dopamine receptor (cho), “Not Active”; in data set [4], “Not Active”; at Cytochrome P450 2E1, “Not Active”. Besides, the inhibition constant Ki entry at Cytochrome P450 2E1 is listed as “Not Active”.

Turning to `O=C(c1ccccc1F)N1CCC(Cc2ccccc2)CC1`, the IC50 result (in data set [1] (reticulocytes); in data set [2] (sf9); in data set [3]; on D(1A) dopamine receptor (cho); in data set [4]; against Cytochrome P450 2E1) was “Not Active” throughout. Besides, at Cytochrome P450 2E1, the Ki result is recorded as “Not Active”.

As to `Cc1c(O)cccc1C(=O)N[C@@H](CSc1ccccc1)[C@H](O)CN1C[C@H]2CCCC[C@H]2C[C@H]1C(=O)NC(C)(C)C`, the IC50 in data set [1] (read-out: IC50) is 13.8 µM; in data set [2] (sf9), “Not Active”; in data set [3] it was “Not Active”; in data set [4], “Not Active”; at Cytochrome P450 2E1 it was “Not Active”. Besides, the inhibition constant Ki entry at Cytochrome P450 2E1 was “Not Active”.

With `CC(O)COC[C@H]1O[C@@H]2O[C@H]3[C@H](O)[C@@H](O)[C@@H](O[C@H]4[C@H](O)[C@@H](O)[C@@H](O[C@H]5[C@H](O)[C@@H](O)[C@@H](O[C@H]6[C@H](O)[C@@H](O)[C@@H](O[C@H]7[C@H](O)[C@@H](O)[C@@H](O[C@H]8[C@H](O)[C@@H](O)[C@@H](O[C@H]1[C@H](O)[C@H]2O)O[C@@H]8COCC(C)O)O[C@@H]7COCC(C)O)O[C@@H]6COCC(C)O)O[C@@H]5COCC(C)O)O[C@@H]4COCC(C)O)O[C@@H]3COCC(C)O` (stereo partly drawn) [2-HYDROXYPROPYL-BETA-CYCLODEXTRIN], the 50% inhibitory concentration (IC50) result (in data set [1] (reticulocytes); in data set [2] (sf9); in data set [3]; on D(1A) dopamine receptor (cho); in data set [4]; on Cytochrome P450 2E1) was “Not Active” each time. Also, on Cytochrome P450 2E1, the Ki result was “Not Active”.

Regarding `NC(=O)c1cccc(N)c1` [3-AMINOBENZAMIDE], the concentration for half-maximal inhibition (IC50) entry (in data set [1] (reticulocytes); in data set [2] (sf9); in data set [3]; at D(1A) dopamine receptor (cho); in data set [4]; against Cytochrome P450 2E1) was “Not Active” in each case. Also, the inhibition constant Ki entry at Cytochrome P450 2E1 is “Not Active”.

As for `C[C@H]1O[C@H](O[C@H]2[C@H](O)[C@@H](O)[C@@H](O[C@H]3[C@H](O)[C@@H](O)C(O)O[C@@H]3CO)O[C@@H]2CO)[C@H](O)[C@@H](O)[C@@H]1N[C@H]1C=C(CO)[C@@H](O)[C@H](O)[C@H]1O` (stereo partly drawn) [ACARBOSE], the IC50 entry (in data set [1] (reticulocytes); in data set [2] (sf9); in data set [3]; at D(1A) dopamine receptor (cho); in data set [4]; at Cytochrome P450 2E1) was “Not Active” each time. The inhibition constant Ki result at Cytochrome P450 2E1 was “Not Active”.

On to `CC[C@H]1[C@@H]2C[C@H]3[C@@H]4N(C)c5ccccc5[C@]45C[C@@H]([C@@H]2[C@H]5O)N3[C@@H]1O` [AJMALINE], for which the IC50 entry (in data set [1] (reticulocytes); in data set [2] (sf9); in data set [3]; at D(1A) dopamine receptor (cho); in data set [4]; at Cytochrome P450 2E1) was “Not Active” throughout. For the same molecule, the Ki result at Cytochrome P450 2E1 was “Not Active”.

`NC12CC3CC(CC(C3)C1)C2` [AMANTADINE]: the IC50 entry (in data set [1] (reticulocytes); in data set [2] (sf9); in data set [3]; at D(1A) dopamine receptor (cho); in data set [4]) was “Not Active” each time.

As for `NCCCNCCSP(=O)(O)O` [AMIFOSTINE], the IC50 result (in data set [1] (reticulocytes); in data set [2] (sf9); in data set [3]; on D(1A) dopamine receptor (cho); in data set [4]; against Cytochrome P450 2E1) was “Not Active” each time. In addition, the inhibition constant Ki result on Cytochrome P450 2E1 was “Not Active”.

As for `CN(C)CCC=C1c2ccccc2CCc2ccccc21` [AMITRIPTYLINE], the IC50 result in data set [1] (reticulocytes) is “Not Active”; in data set [2] (read-out: IC50) it was 0.059 µM; in data set [3], “Not Active”; at D(1A) dopamine receptor (read-out: IC50), 0.355 µM; in data set [4], “Not Active”; at Cytochrome P450 2E1, “Not Active”. Also, the Ki in data set [2] (read-out: Ki) is 0.0086 µM; on D(1A) dopamine receptor (read-out: Ki) it was 0.178 µM; on Cytochrome P450 2E1 it was “Not Active”.

Turning to `CC(=O)Oc1ccccc1C(=O)O` [ASPIRIN], the concentration for half-maximal inhibition (IC50) result (in data set [1] (reticulocytes); in data set [2] (sf9); in data set [3]; on D(1A) dopamine receptor (cho); in data set [4]; at Cytochrome P450 2E1) was “Not Active” each time. For the same molecule, the Ki result at Cytochrome P450 2E1 is “Not Active”.

Turning to `CC(C)c1c(C(=O)Nc2ccccc2)c(-c2ccccc2)c(-c2ccc(F)cc2)n1CC[C@@H](O)C[C@@H](O)CC(=O)O` [ATORVASTATIN], the IC50 result (in data set [1] (reticulocytes); in data set [2] (sf9); in data set [3]; at D(1A) dopamine receptor (cho); in data set [4]; at Cytochrome P450 2E1) was “Not Active” in each case. The inhibitory constant (Ki) result on Cytochrome P450 2E1 is listed as “Not Active”.

Turning to `CC(=O)OC[C@H]1O[C@@H](n2ncc(=O)[nH]c2=O)[C@H](OC(C)=O)[C@@H]1OC(C)=O` [AZARIBINE], the half-inhibitory concentration (IC50) result (in data set [1] (reticulocytes); in data set [2] (sf9); in data set [3]; on D(1A) dopamine receptor (cho); in data set [4]; on Cytochrome P450 2E1) was “Not Active” each time. In addition, the inhibition constant Ki result at Cytochrome P450 2E1 is recorded as “Not Active”.

As to `C[C@H]1[C@H](NC(=O)/C(=N\OC(C)(C)C(=O)O)c2csc(N)n2)C(=O)N1S(=O)(=O)O` [AZTREONAM], the IC50 result (in data set [1] (reticulocytes); in data set [2] (sf9); in data set [3]; on D(1A) dopamine receptor (cho); in data set [4]; against Cytochrome P450 2E1) was “Not Active” throughout. At Cytochrome P450 2E1, the Ki result is “Not Active”.

In the case of `O=C(O)CCNC(=O)c1ccc(/N=N/c2ccc(O)c(C(=O)O)c2)cc1` [BALSALAZIDE], the IC50 entry (in data set [1] (reticulocytes); in data set [2] (sf9); in data set [3]; at D(1A) dopamine receptor (cho); in data set [4]; on Cytochrome P450 2E1) was “Not Active” throughout. For the same molecule, the inhibition constant Ki result at Cytochrome P450 2E1 was “Not Active”.

Consider `ClC(Cl)(Cl)Cl` [CARBON TETRACHLORIDE], for which the IC50 entry (in data set [1] (reticulocytes); in data set [2] (sf9); in data set [3]; at D(1A) dopamine receptor (cho); in data set [4]) was “Not Active” in each case.

On to `CC(=O)OCC(=O)[C@@]12OC(C)(C)O[C@@H]1C[C@H]1[C@@H]3C[C@H](F)C4=CC(=O)C=C[C@]4(C)[C@@]3(F)[C@@H](O)C[C@@]12C` [FLUOCINONIDE], for which the half-maximal inhibitory concentration (IC50) entry (in data set [1] (reticulocytes); in data set [2] (sf9); in data set [3]; at D(1A) dopamine receptor (cho); in data set [4]) was “Not Active” throughout.

Regarding `N[C@@H](Cn1ccc(=O)c(O)c1)C(=O)O` [L-MIMOSINE], the IC50 entry (in data set [1] (reticulocytes); in data set [2] (sf9); in data set [3]; on D(1A) dopamine receptor (cho); in data set [4]) was “Not Active” each time.

For the molecule `C[C@@H]1C/C=C/C=C/C=C/C=C/[C@H](O[C@@H]2O[C@H](C)[C@@H](O)[C@H](N)[C@@H]2O)C[C@@H]2O[C@](O)(C[C@@H](O)C[C@H]3O[C@@H]3/C=C/C(=O)O1)C[C@H](O)[C@H]2C(=O)O` [NATAMYCIN], the IC50 entry (in data set [1] (reticulocytes); in data set [2] (sf9); in data set [3]; at D(1A) dopamine receptor (cho); in data set [4]) was “Not Active” throughout.
